These results are taken from patent US8722849B2, “Polypeptides” (Novo Nordisk A/S, priority 2011, dated 2014).

For data set [1], the target named is T1, human amylin receptor (amylin 3(a) receptor: human calcitonin receptor + RAMP-3) (Homo sapiens, UniProt O60896+P30988).
T1 construct: expressed in transfected cells; host or cells: BHK570
T1 sequence (P30988 25-474): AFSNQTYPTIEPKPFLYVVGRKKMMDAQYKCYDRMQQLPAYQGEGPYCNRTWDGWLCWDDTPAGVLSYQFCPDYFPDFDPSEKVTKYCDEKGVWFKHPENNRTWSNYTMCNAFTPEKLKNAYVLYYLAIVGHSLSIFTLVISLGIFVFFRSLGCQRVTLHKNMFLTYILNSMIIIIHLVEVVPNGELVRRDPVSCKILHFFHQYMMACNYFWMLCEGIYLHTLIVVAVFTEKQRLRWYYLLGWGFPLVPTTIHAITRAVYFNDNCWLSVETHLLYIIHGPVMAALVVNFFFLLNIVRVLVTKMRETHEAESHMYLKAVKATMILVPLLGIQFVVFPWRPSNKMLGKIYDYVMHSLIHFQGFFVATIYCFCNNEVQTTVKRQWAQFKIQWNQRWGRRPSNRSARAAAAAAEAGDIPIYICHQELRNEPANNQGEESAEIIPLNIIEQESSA
T1 sequence (O60896 24-148 partner): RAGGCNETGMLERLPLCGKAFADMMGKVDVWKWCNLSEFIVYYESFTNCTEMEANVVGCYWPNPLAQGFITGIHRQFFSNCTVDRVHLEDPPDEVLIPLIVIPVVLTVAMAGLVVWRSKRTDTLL
Kind of data set: Assay (II)a functional CRE-luciferase assay, human amylin receptor. The data set is classed as cell-based. Particulars: Table 2; BHK amylin 3(a)-receptor/CRE-luc cells.

In data set [2] the target is T2, rat amylin 3(a) receptor (rat calcitonin(a) receptor + rat RAMP3) (Rattus norvegicus, UniProt P32214+Q9JJ73).
T2 construct: expressed in transfected cells; host or cells: BHK tk'ts 13
T2 sequence (P32214 25-479 isoform P32214-2 limits assumed): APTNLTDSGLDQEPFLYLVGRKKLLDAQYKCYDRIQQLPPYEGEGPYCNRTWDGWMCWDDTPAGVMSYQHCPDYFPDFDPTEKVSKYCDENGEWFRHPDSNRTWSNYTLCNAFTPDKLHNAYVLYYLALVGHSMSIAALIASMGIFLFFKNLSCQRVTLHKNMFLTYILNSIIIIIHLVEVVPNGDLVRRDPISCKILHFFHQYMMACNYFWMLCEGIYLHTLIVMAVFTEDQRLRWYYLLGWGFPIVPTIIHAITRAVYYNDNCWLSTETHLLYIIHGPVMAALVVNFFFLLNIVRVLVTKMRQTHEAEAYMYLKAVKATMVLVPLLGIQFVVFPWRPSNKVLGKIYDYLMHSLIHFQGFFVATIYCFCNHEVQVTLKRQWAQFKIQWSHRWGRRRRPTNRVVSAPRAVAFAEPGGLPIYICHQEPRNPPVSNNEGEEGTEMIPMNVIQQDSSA
T2 sequence (Q9JJ73 23-147 partner): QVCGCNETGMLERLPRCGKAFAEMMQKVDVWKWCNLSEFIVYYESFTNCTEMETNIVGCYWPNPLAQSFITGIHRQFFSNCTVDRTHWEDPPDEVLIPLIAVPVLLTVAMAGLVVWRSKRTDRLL
Kind of data set: Assay (II)b functional cAMP FlashPlate assay, rat amylin receptor. The data set is classed as cell-based. Particulars: Table 11. Put shortly:
(§1)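 BHK tk'ts 13 cells transiently transfected with rat calcitonin(a) receptor, alone or with rat RAMP3 (amylin 3(a)), were stimulated 24 hours later with sample for 30 min in buffer containing IBMX. cAMP measured by competitive radioactive FlashPlate assay, scintillation read after 3 h detection incubation.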

In data set [3] the target is T3, rat calcitonin (a) receptor (Rattus norvegicus, UniProt P32214).
T3 construct: expressed in transfected cells; host or cells: BHK tk'ts 13
T3 sequence (P32214 25-479 isoform P32214-2 limits assumed): T2 sequence (P32214 25-479 isoform P32214-2 limits assumed)
Put plainly: Assay (II)b functional cAMP FlashPlate assay, rat calcitonin receptor. The data set is classed as cell-based. The note with it: Table 11; read-out: CTa receptor rat EC50. A digest of the protocol: as §1

The target in data set [4] is T4, human calcitonin receptor (Homo sapiens, UniProt P30988).
T4 construct: expressed in transfected cells; host or cells: BHK570
T4 sequence (P30988 25-474): T1 sequence (P30988 25-474)
Kind of data set: Assay (II)a functional CRE-luciferase assay, human calcitonin receptor. It is filed as cell-based. The note with it: Table 7; human calcitonin (CTa) receptor.

Data set [5] in a line: Assay (IV) determination of solubility. It is filed as physicochemical. A digest of the protocol: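 Solubility is measured across pH 3.0–8.0 by mixing a ~500 nmol/ml aqueous polypeptide stock 1:1 with 100 mM glycylglycine or bistrispropane buffers. Samples stand 18 hours at room temperature, then are centrifuged and the soluble concentration is determined by HPLC.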
Where [6] appears, read: bistrispropane buffer, pH 6, pH 6.0, read-out: Solubility pH 6.0.
Setting [7] is: bistrispropane buffer, pH 6.5, pH 6.5, read-out: Solubility pH 6.5.
The mark [8] stands for this setting: bistrispropane buffer, pH 7, pH 7.0, read-out: Solubility pH 7.0.
Setting [9] is: bistrispropane buffer, pH 7.5, pH 7.5, read-out: Solubility pH 7.5.
The mark [10] stands for this setting: bistrispropane buffer, pH 8, pH 8.0, read-out: Solubility pH 8.0.
Where [11] appears, read: glycylglycine buffer, pH 3, pH 3.0, read-out: Solubility pH 3.0.
The mark [12] stands for this setting: glycylglycine buffer, pH 4, pH 4.0, 18 hours at room temperature, Table 2, read-out: Solubility pH 4.0.
Setting [13] is: glycylglycine buffer, pH 4, pH 4.0, read-out: Solubility pH 4.0.
Where [14] appears, read: glycylglycine buffer, pH 5, pH 5.0, read-out: Solubility pH 5.0.
Where [15] appears, read: bistrispropane buffer, pH 7, pH 7.0, 18 hours at room temperature, Table 3, read-out: Solubility pH 7.0.
The mark [16] stands for this setting: bistrispropane buffer, pH 7, pH 7.0, Table 8, read-out: Solubility pH 7.0.
Where [17] appears, read: bistrispropane buffer, pH 7, pH 7.0, Table 9, read-out: Solubility pH 7.0.
Where [18] appears, read: bistrispropane buffer, pH 7.5, pH 7.5, Table 9, read-out: Solubility pH 7.5.

Values after ≈ are worked out from the molar mass of the structure shown. Where two headings read alike, the source gives them in different places. Starred links: 1 amine or outer side, 2 acyl side, 3 side chain; linkers in the order of their positions; H or OH if unused. Positions of bridges follow the written chain, without caps; N, C: chain ends. Residues, ends and D or L forms follow the SMILES beside them. *: point of attachment. C20 diacid = O=C(O)CCCCCCCCCCCCCCCCCCC(=O)*; γGlu = O=C(O)[C@H](CCC(=O)[*:2])N[*:1]

Turning to `CC[C@H](C)[C@H](NC(=O)[C@@H]1CCCN1C(=O)CNC(=O)[C@H](Cc1ccccc1)NC(=O)[C@H](CC(N)=O)NC(=O)[C@H](CC(N)=O)NC(=O)[C@H](CO)NC(=O)[C@H](CO)NC(=O)[C@H](Cc1c[nH]cn1)NC(=O)[C@H](Cc1c[nH]cn1)NC(=O)[C@H](CC(C)C)NC(=O)[C@H](Cc1ccccc1)NC(=O)[C@H](CCC(=O)O)NC(=O)[C@H](C)NC(=O)[C@H](CC(C)C)NC(=O)[C@H](CCCNC(=N)N)NC(=O)[C@H](CCC(N)=O)NC(=O)[C@@H](NC(=O)[C@H](C)NC(=O)[C@@H]1CSSC[C@H](NC(=O)[C@H](Cc2c[nH]cn2)NC(=O)CC[C@H](NC(=O)CCCCCCCCCCCCCCCCCCC(=O)O)C(=O)O)C(=O)N[C@@H](CC(N)=O)C(=O)N[C@@H]([C@@H](C)O)C(=O)N[C@@H](C)C(=O)N[C@@H]([C@@H](C)O)C(=O)N1)[C@@H](C)O)C(=O)N[C@@H](CC(C)C)C(=O)N1CCC[C@H]1C(=O)N1CCC[C@H]1C(=O)N[C@H](C(=O)N[C@@H](CC(N)=O)C(=O)N[C@H](C(=O)NCC(=O)N[C@@H](CO)C(=O)N[C@@H](Cc1c[nH]cn1)C(=O)N[C@H](C(=O)N[C@@H](Cc1ccc(O)cc1)C(N)=O)[C@@H](C)O)C(C)C)[C@@H](C)O` [Example 76, N-alpha-[(S)-4-Carboxy-4-(19-carboxynonadecanoylamino)butyryl]-[His1,Glu14,His17,His35]-pramlintide] ({C20 diacid-γGlu}-HCNTATCATQRLAEFLHHSSNNFGPILPPTNVGSHTY-NH2; disulfide 2-7 (inferred); C-terminus assumed), the 50% effective concentration (EC50) in data set [1] was 0.121 nM; in data set [2], 0.224 nM; in data set [3], 1.04 nM; in data set [4], 0.0855 nM. Also, the solubility at 18 h in data set [5] (setting [6]) is 45 µM (≈ 202 µg/mL); in data set [5] (setting [7]), 1 µM (≈ 4.49 µg/mL); in data set [5] (setting [8]), 4 µM (≈ 18 µg/mL); in data set [5] (setting [9]), 104 µM (≈ 467 µg/mL); in data set [5] (setting [10]), greater than 200 µM; in data set [5] (setting [11]), greater than 200 µM. The solubility at 18 h in data set [5] (setting [12]), in data set [5] (setting [13]) and in data set [5] (setting [14]) was greater than 200 µM each time.

On to `CC[C@H](C)[C@H](NC(=O)[C@@H]1CCCN1C(=O)CNC(=O)[C@H](Cc1ccccc1)NC(=O)[C@H](CC(N)=O)NC(=O)[C@H](CC(N)=O)NC(=O)[C@H](CO)NC(=O)[C@H](CO)NC(=O)[C@H](Cc1c[nH]cn1)NC(=O)[C@H](CCCNC(=N)N)NC(=O)[C@H](CC(C)C)NC(=O)[C@H](Cc1ccccc1)NC(=O)[C@H](CCC(=O)O)NC(=O)[C@H](C)NC(=O)[C@H](CC(C)C)NC(=O)[C@H](CCCNC(=N)N)NC(=O)[C@H](CCC(N)=O)NC(=O)[C@@H](NC(=O)[C@H](C)NC(=O)[C@@H]1CSSC[C@H](NC(=O)CNC(=O)CC[C@H](NC(=O)CCCCCCCCCCCCCCCCCCC(=O)O)C(=O)O)C(=O)N[C@@H](CC(N)=O)C(=O)N[C@@H]([C@@H](C)O)C(=O)N[C@@H](C)C(=O)N[C@@H]([C@@H](C)O)C(=O)N1)[C@@H](C)O)C(=O)N[C@@H](CC(C)C)C(=O)N1CCC[C@H]1C(=O)N1CCC[C@H]1C(=O)N[C@H](C(=O)N[C@@H](CC(N)=O)C(=O)N[C@H](C(=O)NCC(=O)N[C@@H](CO)C(=O)N[C@@H](CC(N)=O)C(=O)N[C@H](C(=O)N1CCC[C@H]1C(N)=O)[C@@H](C)O)C(C)C)[C@@H](C)O` [Example 88, N-alpha-[(S)-4-Carboxy-4-(19-carboxynonadecanoylamino)butyryl]-[Gly1,Glu14,Arg17,Pro37]-pramlintide] ({C20 diacid-γGlu}-GCNTATCATQRLAEFLRHSSNNFGPILPPTNVGSNTP-NH2; disulfide 2-7 (inferred); C-terminus assumed), for which the EC50 in data set [1] worked out at 0.036 nM; in data set [2], 0.3 nM; in data set [3], 0.37 nM; in data set [4], 0.055 nM. Further, the solubility at 18 h in data set [5] (setting [6]), in data set [5] (setting [7]), in data set [5] (setting [15]), in data set [5] (setting [16]), in data set [5] (setting [17]) and in data set [5] (setting [8]) was greater than 200 µM each time. For the same compound, the solubility at 18 h in data set [5] (setting [18]), in data set [5] (setting [9]), in data set [5] (setting [10]), in data set [5] (setting [11]), in data set [5] (setting [12]) and in data set [5] (setting [13]) was greater than 200 µM in each case. For the same compound, the solubility at 18 h in data set [5] (setting [14]) was greater than 200 µM.

Regarding `CC[C@H](C)[C@H](NC(=O)[C@@H]1CCCN1C(=O)CNC(=O)[C@H](Cc1ccccc1)NC(=O)[C@H](CC(N)=O)NC(=O)[C@H](CC(N)=O)NC(=O)[C@H](CO)NC(=O)[C@H](CO)NC(=O)[C@H](Cc1c[nH]cn1)NC(=O)[C@H](CCCNC(=N)N)NC(=O)[C@H](CC(C)C)NC(=O)[C@H](Cc1ccccc1)NC(=O)[C@H](CCC(=O)O)NC(=O)[C@H](C)NC(=O)[C@H](CC(C)C)NC(=O)[C@H](CCCNC(=N)N)NC(=O)[C@H](CCC(N)=O)NC(=O)[C@@H](NC(=O)[C@H](C)NC(=O)[C@@H]1CSSC[C@H](NC(=O)[C@H](Cc2c[nH]cn2)NC(=O)CNC(=O)CC[C@H](NC(=O)CCCCCCCCCCCCCCCCCCC(=O)O)C(=O)O)C(=O)N[C@@H](CC(N)=O)C(=O)N[C@@H]([C@@H](C)O)C(=O)N[C@@H](C)C(=O)N[C@@H]([C@@H](C)O)C(=O)N1)[C@@H](C)O)C(=O)N[C@@H](CC(C)C)C(=O)N1CCC[C@H]1C(=O)N1CCC[C@H]1C(=O)N[C@H](C(=O)N[C@@H](CC(N)=O)C(=O)N[C@H](C(=O)NCC(=O)N[C@@H](CO)C(=O)N[C@@H](CC(N)=O)C(=O)N[C@H](C(=O)N1CCC[C@H]1C(N)=O)[C@@H](C)O)C(C)C)[C@@H](C)O` [Example 89, N-alpha-[(S)-4-Carboxy-4-(19-carboxynonadecanoylamino)butyryl]-Gly-[His1,Glu14,Arg17,Pro37]-pramlintide] ({C20 diacid-γGlu}-GHCNTATCATQRLAEFLRHSSNNFGPILPPTNVGSNTP-NH2; disulfide 3-8 (inferred)), the concentration giving a half-maximal response (EC50) in data set [1] turned out to be 0.0255 nM; in data set [2], 0.151 nM; in data set [3], 0.114 nM; in data set [4] it was 0.0395 nM. For the same compound, the solubility at 18 h in data set [5] (setting [6]), in data set [5] (setting [7]), in data set [5] (setting [15]), in data set [5] (setting [16]), in data set [5] (setting [17]) and in data set [5] (setting [8]) was greater than 200 µM each time. Further, the solubility at 18 h in data set [5] (setting [18]), in data set [5] (setting [9]), in data set [5] (setting [10]), in data set [5] (setting [11]), in data set [5] (setting [12]) and in data set [5] (setting [13]) was greater than 200 µM in each case. In addition, in data set [5] (setting [14]), the solubility at 18 h was greater than 200 µM.

The EC50 is the concentration at which the effect is half-maximal. For orientation: solubility means how much of the substance goes into solution per volume.
